The assay deals with Slc:Wistar male rats given scopolamine. The assay can be described thus: Passive avoidance reaction (shuttle type avoidance test box) in scopolamine-treated rats. Format: in vivo, rat. The settings on record: for latent time compared with the control group: Example 2, scopolamine 0.25 or 0.5 mg/kg, drug treatment from the 2nd day. The protocol:
6-Week old Slc:Wistar male rats were used for the experiment after preliminary breeding including one week of quarantine. The animals were individually bred under an environment at a temperature of 22±3° C. and a humidity of 50±20% with illumination of 12 hours (8:00 to 20:00) for both the preliminary breeding and experimental periods, and the animals were given pellets (Labo MR Stock, Nihon Nosan Kogyo K.K.) and tap water ad libitum. The animals were divided into groups according to body weights as an index (10 animals/group), and trials for acquisition and reproduction of memory were performed. Each trial was performed by using a shuttle type avoidance test box. […] Each animal was put into the light room, time until the animal moved to the dark room (latent time) was measured up to 5 minutes, and when the rat moved to the darkroom, the partition was shut, and shock was given by electrification.
Each animal was subcutaneously given 0.5 mg/kg of scopolamine 30 minutes before the trial, and this procedure was continued for seven days. Scopolamine, which is an anticholinergic agent, is known to block the muscarinic acetylcholine receptor in the striate body and inhibit acquisition of new memory (Folia Pharmacol. Jpn., 97, pp. 351-359, 1991). From the third day, the test substance (Am80: 4-[(5,6,7,8-tetrahydro-5,5,8,8-tetramethyl-2-naphthalenyl)carbamoyl]benzoic acid, 10 mg/kg/day) was orally given 3 hours before the scopolamine treatment. With numerical values obtained, average and standard deviation were calculated for each group, and a homoscedasticity test was performed by F-test between the control group (no Am80 treatment) and Am80-treated group. When homoscedasticity was observed, presence or absence of significant difference was determined by Student's t-test, and when non-homoscedasticity was observed, presence or absence of significant difference was determined by Aspin-Welch's t-test.
A test was performed in the same manner as that of Example 1, except that scopolamine was given at a dose of 0.25 mg/kg or 0.5 mg/kg, and 2 mg/kg, 5 mg/kg or 12.5 mg/kg of Am80, 30 mg/kg of Tac101 (4-[(3,5-bis-trimethylsilylphenyl)-carboxamido]benzoic acid), and 10 mg/kg of HX630 (4-[2,3-(2,5-dimethyl-2,5-hexano)dibenzo[b,f][1,4]thiazepin-11-yl]benzoic acid) were given. Combinatory use of Am80 (5 mg/kg) and HX630 (10 mg/kg) was also similarly examined. Drug treatment was performed from the 2nd day.
In the same manner as that of Example 2, scopolamine was given at a dose of 0.25 mg/kg, and 10 mg/kg of 4-[5-(4,7-dimethylbenzofuran-2-yl)pyrrol-2-yl]benzoic acid (IT-K-1001) was orally given.

Results on four molecules are retold here after patent publication US8431613B2, “Memory fixation accelerator” (Research Foundation ITSUU Laboratory, priority 2004, dated 2013).

Molecules are shown by their SMILES. Marks after values point to notes of the source that are not given here.

In the case of `Cc1ccc(C)c2oc(-c3ccc(-c4ccc(C(=O)O)cc4)[nH]3)cc12` [IT-K-1001, 4-[5-(4,7-dimethylbenzofuran-2-yl)pyrrol-2-yl]benzoic acid], the “effect on the action of scopolamine (reaction latency)” value (Example 3, 10 mg/kg oral, scopolamine 0.25 mg/kg) was “markedly inhibited the effect of scopolamine”. The “Reaction latency” value stood at 22 s (IT-K-1001 10 mg/kg/day oral, SCP 0.25 mg/kg/day, lapsed day 1); 11 s (IT-K-1001 10 mg/kg/day oral, SCP 0.25 mg/kg/day, lapsed day 2); 106 s (IT-K-1001 10 mg/kg/day oral, SCP 0.25 mg/kg/day, lapsed day 3); 115 s (IT-K-1001 10 mg/kg/day oral, SCP 0.25 mg/kg/day, lapsed day 4); 206 s (IT-K-1001 10 mg/kg/day oral, SCP 0.25 mg/kg/day, lapsed day 5); 291 s (IT-K-1001 10 mg/kg/day oral, SCP 0.25 mg/kg/day, lapsed day 6). Also, the “Reaction latency” value is, setting by setting: (IT-K-1001 10 mg/kg/day oral, SCP 0.25 mg/kg/day, lapsed day 7) 300 s; (IT-K-1001 10 mg/kg/day oral, SCP 0.25 mg/kg/day, lapsed day 8) 281 s.
Regarding `CC1(C)CCC(C)(C)c2cc3c(cc21)Sc1ccccc1N=C3c1ccc(C(=O)O)cc1` [HX630, 4-[2,3-(2,5-dimethyl-2,5-hexano)dibenzo[b,f][1,4]thiazepin-11-yl]benzoic acid], the “latent time compared with the control group” value is on record as “gradually extended”. The “Reaction latency” value (HX630 10 mg/kg/day from 2nd day, SCP 0.5 mg/kg/day, lapsed day 1) worked out at 18 s. Moreover, the “Reaction latency” value (HX630 10 mg/kg/day from 2nd day, SCP 0.5 mg/kg/day, lapsed day 2) came out at 21 s. In addition, the “Reaction latency” value (HX630 10 mg/kg/day from 2nd day, SCP 0.5 mg/kg/day, lapsed day 3) was determined as 30 s. In addition, the “Reaction latency” value (HX630 10 mg/kg/day from 2nd day, SCP 0.5 mg/kg/day, lapsed day 4) worked out at 33 s. Moreover, the “Reaction latency” value (HX630 10 mg/kg/day from 2nd day, SCP 0.5 mg/kg/day, lapsed day 5) worked out at 51 s.
Regarding `C[Si](C)(C)c1cc(C(=O)Nc2ccc(C(=O)O)cc2)cc([Si](C)(C)C)c1` [Tac101, 4-[(3,5-bis-trimethylsilylphenyl)-carboxamido]benzoic acid], the “latent time compared with the control group” value is listed as “gradually extended”. Also, the “Reaction latency” value (Tac101 30 mg/kg/day from 2nd day, SCP 0.5 mg/kg/day, lapsed day 1) was found to be 19 s. The “Reaction latency” value (Tac101 30 mg/kg/day from 2nd day, SCP 0.5 mg/kg/day, lapsed day 2) was 21 s. Further, the “Reaction latency” value (Tac101 30 mg/kg/day from 2nd day, SCP 0.5 mg/kg/day, lapsed day 3) is 47 s. Besides, for the setting “Tac101 30 mg/kg/day from 2nd day, SCP 0.5 mg/kg/day, lapsed day 4”, the “Reaction latency” value is 69 s. Further, for the setting “Tac101 30 mg/kg/day from 2nd day, SCP 0.5 mg/kg/day, lapsed day 5”, the “Reaction latency” value was 107 s.
In the case of `CC1(C)CCC(C)(C)c2cc(NC(=O)c3ccc(C(=O)O)cc3)ccc21` [Am80, 4-[(5,6,7,8-tetrahydro-5,5,8,8-tetramethyl-2-naphthalenyl)carbamoyl]benzoic acid], the “latent time compared with the control group” value is listed as “gradually extended”. Also, the “Reaction latency” value (Am80 2 mg/kg/day from 2nd day, SCP 0.5 mg/kg/day, lapsed day 1) came to 14 s. Also, for the setting “Am80 2 mg/kg/day from 2nd day, SCP 0.5 mg/kg/day, lapsed day 2”, the “Reaction latency” value amounted to 9 s. Moreover, the “Reaction latency” value (Am80 2 mg/kg/day from 2nd day, SCP 0.5 mg/kg/day, lapsed day 3) is 23 s. Moreover, for the setting “Am80 2 mg/kg/day from 2nd day, SCP 0.5 mg/kg/day, lapsed day 4”, the “Reaction latency” value amounted to 24 s. The “Reaction latency” value (Am80 2 mg/kg/day from 2nd day, SCP 0.5 mg/kg/day, lapsed day 5) was determined as 38 s. The “Reaction latency” value (Am80 5 mg/kg/day from 2nd day, SCP 0.25 mg/kg/day, lapsed day 1) is 14 s. Under “Am80 5 mg/kg/day from 2nd day, SCP 0.25 mg/kg/day, lapsed day 2”, the “Reaction latency” value came out at 15 s. Besides, under “Am80 5 mg/kg/day from 2nd day, SCP 0.25 mg/kg/day, lapsed day 3”, the “Reaction latency” value amounted to 53 s. For the same molecule, for the setting “Am80 5 mg/kg/day from 2nd day, SCP 0.25 mg/kg/day, lapsed day 4”, the “Reaction latency” value turned out to be 80 s. The “Reaction latency” value (Am80 5 mg/kg/day from 2nd day, SCP 0.25 mg/kg/day, lapsed day 5) was 155 s. Moreover, the “Reaction latency” value (Am80 5 mg/kg/day from 2nd day, SCP 0.5 mg/kg/day, lapsed day 1) was found to be 19 s. The “Reaction latency” value (Am80 5 mg/kg/day from 2nd day, SCP 0.5 mg/kg/day, lapsed day 2) came out at 18 s. Further, the “Reaction latency” value (Am80 5 mg/kg/day from 2nd day, SCP 0.5 mg/kg/day, lapsed day 3) was 38 s. In addition, the “Reaction latency” value (Am80 5 mg/kg/day from 2nd day, SCP 0.5 mg/kg/day, lapsed day 4) is 52 s. In addition, for the setting “Am80 5 mg/kg/day from 2nd day, SCP 0.5 mg/kg/day, lapsed day 5”, the “Reaction latency” value came to 71 s. In addition, where the note is “Am80 10 mg/kg/day oral from 3rd day, scopolamine 0.5 mg/kg s.c., lapsed day 1 (before treatment)”, the “Reaction latency” value stood at 15 s. In addition, the “Reaction latency” value (Am80 10 mg/kg/day oral from 3rd day, scopolamine 0.5 mg/kg s.c., lapsed day 2 (before treatment)) is 14 s. Moreover, the “Reaction latency” value (Am80 10 mg/kg/day oral from 3rd day, scopolamine 0.5 mg/kg s.c., lapsed day 3) was determined as 26 s. Moreover, the “Reaction latency” value (Am80 10 mg/kg/day oral from 3rd day, scopolamine 0.5 mg/kg s.c., lapsed day 4) is 88 s. In addition, under “Am80 10 mg/kg/day oral from 3rd day, scopolamine 0.5 mg/kg s.c., lapsed day 5”, the “Reaction latency (second)” value is 149** second. The “Reaction latency (second)” value (Am80 10 mg/kg/day oral from 3rd day, scopolamine 0.5 mg/kg s.c., lapsed day 6) was 163** second. Also, the “Reaction latency (second)” value (Am80 10 mg/kg/day oral from 3rd day, scopolamine 0.5 mg/kg s.c., lapsed day 7) was 162** second. Also, the “Reaction latency” value (Am80 12.5 mg/kg/day from 2nd day, SCP 0.5 mg/kg/day, lapsed day 1) stood at 15 s. Also, under “Am80 12.5 mg/kg/day from 2nd day, SCP 0.5 mg/kg/day, lapsed day 2”, the “Reaction latency” value amounted to 24 s. Moreover, the “Reaction latency” value (Am80 12.5 mg/kg/day from 2nd day, SCP 0.5 mg/kg/day, lapsed day 3) is 43 s. For the same molecule, the “Reaction latency” value (Am80 12.5 mg/kg/day from 2nd day, SCP 0.5 mg/kg/day, lapsed day 4) is 74 s. For the same molecule, the “Reaction latency” value (Am80 12.5 mg/kg/day from 2nd day, SCP 0.5 mg/kg/day, lapsed day 5) was found to be 133 s. The “latent time, course from the start of the treatment” value (Example 1, Am80 10 mg/kg/day oral, scopolamine 0.5 mg/kg s.c., significant differences vs control from the 5th day) is given as “gradually extended”.
